The conditions of the data set: from C=Cc1ccc(N2C(=O)N=C(NC3CCCCC3)C23CCN(Cc2ccc(I)cc2)CC3)cc1; cc_pd bond; 2 steps.

`O=C1N=C(NC2CCCCC2)C23CCN(CC2)Cc2ccc(cc2)CCc2ccc(cc2)N13` had a ring closure, yield of all isomers of 2.3%.

Source of the values: patent US8399473.
